Experiments:
barnyardgrass [1] = experiment: Test C preemergence; format: in vivo, Echinochloa crusgalli; conditions: preemergence, 0 to 100 scale (0 no effect, 100 complete control)
Method in brief: (§1)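 Soil-applied (pre) and foliar (post, 1–2 leaf, 2–10 cm) sprays; surfactant-containing non-phytotoxic solvent vehicle; loam/sand substrate. Readout: visual % control at 10 d, greenhouse, versus untreated.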

blackgrass [2] = experiment: Test C preemergence; format: in vivo, Alopecurus myosuroides; conditions: preemergence, 0 to 100 scale (0 no effect, 100 complete control)
Method in brief: as §1

corn [3] = experiment: Test C preemergence; format: in vivo, Zea mays; conditions: preemergence, 0 to 100 scale (0 no effect, 100 complete control)
Method in brief: as §1

green foxtail [4] = experiment: Test C preemergence; format: in vivo, Setaria viridis; conditions: preemergence, 0 to 100 scale (0 no effect, 100 complete control)
Method in brief: as §1

kochia [5] = experiment: Test C preemergence; format: in vivo, Bassia scoparia; conditions: preemergence, 0 to 100 scale (0 no effect, 100 complete control)
Method in brief: as §1

oat, wild [6] = experiment: Test C preemergence; format: in vivo, Avena fatua; conditions: preemergence, 0 to 100 scale (0 no effect, 100 complete control)
Method in brief: as §1

pigweed, palmer [7] = experiment: Test C preemergence; format: in vivo, Amaranthus palmeri; conditions: preemergence, 0 to 100 scale (0 no effect, 100 complete control)
Method in brief: as §1

ragweed [8] = experiment: Test C preemergence; format: in vivo, Ambrosia artemisiifolia; conditions: preemergence, 0 to 100 scale (0 no effect, 100 complete control)
Method in brief: as §1

ryegrass, Italian [9] = experiment: Test C preemergence; format: in vivo, Lolium multiflorum; conditions: preemergence, 0 to 100 scale (0 no effect, 100 complete control)
Method in brief: as §1

soybean [10] = experiment: Test C preemergence; format: in vivo, Glycine max; conditions: preemergence, 0 to 100 scale (0 no effect, 100 complete control)
Method in brief: as §1

wheat [11] = experiment: Test C preemergence; format: in vivo, Triticum aestivum; conditions: preemergence, 0 to 100 scale (0 no effect, 100 complete control)
Method in brief: as §1

barnyardgrass [12] = experiment: Test C postemergence; format: in vivo, Echinochloa crusgalli; conditions: postemergence, 10 days
Method in brief: as §1

blackgrass [13] = experiment: Test C postemergence; format: in vivo, Alopecurus myosuroides; conditions: postemergence, 10 days
Method in brief: as §1

corn [14] = experiment: Test C postemergence; format: in vivo, Zea mays; conditions: postemergence, 10 days
Method in brief: as §1

green foxtail [15] = experiment: Test C postemergence; format: in vivo, Setaria viridis; conditions: postemergence, 10 days
Method in brief: as §1

kochia [16] = experiment: Test C postemergence; format: in vivo, Bassia scoparia; conditions: postemergence, 10 days
Method in brief: as §1

oat, wild [17] = experiment: Test C postemergence; format: in vivo, Avena fatua; conditions: postemergence, 10 days
Method in brief: as §1

pigweed, palmer [18] = experiment: Test C postemergence; format: in vivo, Amaranthus palmeri; conditions: postemergence, 10 days
Method in brief: as §1

ragweed [19] = experiment: Test C postemergence; format: in vivo, Ambrosia artemisiifolia; conditions: postemergence, 10 days
Method in brief: as §1

ryegrass, Italian [20] = experiment: Test C postemergence; format: in vivo, Lolium multiflorum; conditions: postemergence, 10 days
Method in brief: as §1

soybean [21] = experiment: Test C postemergence; format: in vivo, Glycine max; conditions: postemergence, 10 days
Method in brief: as §1

wheat [22] = experiment: Test C postemergence; format: in vivo, Triticum aestivum; conditions: postemergence, 10 days
Method in brief: as §1

galium = experiment: Test C postemergence; format: in vivo, Galium aparine; conditions: postemergence, 10 days
Method in brief: as §1

horseweed = experiment: Test C postemergence; format: in vivo, Erigeron canadensis; conditions: postemergence, 10 days
Method in brief: as §1

barnyardgrass [23] = experiment: Test D flooded paddy test; format: in vivo, Echinochloa crus-galli; conditions: 250 g ai/ha, applied to paddy water, visual rating after 13 to 14 days, scale 0 to 100 (0 no effect, 100 complete control)
Method in brief: (§2)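 Compounds go straight into paddy water over 2-leaf plants in pots flooded to 3 cm. Greenhouse holding lasts 13 to 14 days. Injury is scored by eye against controls from 0 (none) to 100 (complete control).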

ducksalad = experiment: Test D flooded paddy test; format: in vivo, Heteranthera limosa; conditions: 250 g ai/ha, applied to paddy water, visual rating after 13 to 14 days, scale 0 to 100 (0 no effect, 100 complete control)
Method in brief: as §2

rice = experiment: Test D flooded paddy test; format: in vivo, Oryza sativa; conditions: 250 g ai/ha, applied to paddy water, visual rating after 13 to 14 days, scale 0 to 100 (0 no effect, 100 complete control)
Method in brief: as §2

sedge, umbrella = experiment: Test D flooded paddy test; format: in vivo, Cyperus difformis; conditions: 250 g ai/ha, applied to paddy water, visual rating after 13 to 14 days, scale 0 to 100 (0 no effect, 100 complete control)
Method in brief: as §2

[24] = 125 g ai/ha, 0 to 100 scale, 0 no effect, 100 complete control
[25] = 500 g ai/ha, 0 to 100 scale (0 no effect, 100 complete control)

Q: `Cc1ccc(-n2cnc(C(C)C)n2)cc1C(=O)N1CC(C(F)(F)F)Oc2c(Cl)cccc21` (single isomer, unassigned) [Compound 291] was tested. Which “Barnyardgrass plant response rating” value (barnyardgrass [1]; 500 g ai/ha) did it give?
A: 100

Q: What about the “Barnyardgrass plant response rating” value (barnyardgrass [1]; Test C, 125 g ai/ha) of the same molecule?
A: 100

Q: And the “Blackgrass plant response rating” value (blackgrass [2]; 500 g ai/ha)?
A: 70

Q: And the “Blackgrass plant response rating” value (blackgrass [2]; Test C, 125 g ai/ha)?
A: 50

Q: What about the “Corn plant response rating” value (corn [3]; 500 g ai/ha) of the same molecule?
A: 50

Q: What about the “Corn plant response rating” value (corn [3]; Test C, 125 g ai/ha) of the same molecule?
A: 30

Q: What about the “Foxtail, Green plant response rating” value (green foxtail [4]; 500 g ai/ha) of the same molecule?
A: 100

Q: What about the “Foxtail, Green plant response rating” value (green foxtail [4]; Test C, 125 g ai/ha) of the same molecule?
A: 100

Q: What about the “Kochia plant response rating” value (kochia [5]; 500 g ai/ha) of the same molecule?
A: 100

Q: What about the “Kochia plant response rating” value (kochia [5]; Test C, 125 g ai/ha) of the same molecule?
A: 80

Q: And the “Oat, Wild plant response rating” value (oat, wild [6]; 500 g ai/ha)?
A: 80

Q: What about the “Oat, Wild plant response rating” value (oat, wild [6]; Test C, 125 g ai/ha) of the same molecule?
A: 60

Q: And the “Pigweed, Palmer plant response rating” value (pigweed, palmer [7]; 500 g ai/ha)?
A: 100

Q: And the “Pigweed, Palmer plant response rating” value (pigweed, palmer [7]; Test C, 125 g ai/ha)?
A: 100

Q: And the “Ragweed plant response rating” value (ragweed [8]; 500 g ai/ha)?
A: 60

Q: What about the “Ragweed plant response rating” value (ragweed [8]; Test C, 125 g ai/ha) of the same molecule?
A: 40

Q: And the “Ryegrass, Italian plant response rating” value (ryegrass, Italian [9]; 500 g ai/ha)?
A: 100

Q: And the “Ryegrass, Italian plant response rating” value (ryegrass, Italian [9]; Test C, 125 g ai/ha)?
A: 90

Q: What about the “Soybean plant response rating” value (soybean [10]; 500 g ai/ha) of the same molecule?
A: 100

Q: And the “Soybean plant response rating” value (soybean [10]; Test C, 125 g ai/ha)?
A: 90

Q: And the “Wheat plant response rating” value (wheat [11]; 500 g ai/ha)?
A: 50

Q: And the “Wheat plant response rating” value (wheat [11]; Test C, 125 g ai/ha)?
A: 30

Q: What about the “Plant response rating, Barnyardgrass” value (barnyardgrass [12]; [24]) of the same molecule?
A: 30

Q: And the “Plant response rating, Barnyardgrass” value (barnyardgrass [12]; [25])?
A: 90

Q: And the “Plant response rating, Blackgrass” value (blackgrass [13]; [24])?
A: 0

Q: What about the “Plant response rating, Blackgrass” value (blackgrass [13]; [25]) of the same molecule?
A: 50

Q: What about the “Plant response rating, Corn” value (corn [14]; [24]) of the same molecule?
A: 20

Q: What about the “Plant response rating, Corn” value (corn [14]; [25]) of the same molecule?
A: 80

Q: What about the “Plant response rating, Foxtail, Green” value (green foxtail [15]; [24]) of the same molecule?
A: 30

Q: What about the “Plant response rating, Foxtail, Green” value (green foxtail [15]; [25]) of the same molecule?
A: 90

Q: And the “Plant response rating, Kochia” value (kochia [16]; [24])?
A: 90

Q: And the “Plant response rating, Kochia” value (kochia [16]; [25])?
A: 100

Q: What about the “Plant response rating, Oat, Wild” value (oat, wild [17]; [24]) of the same molecule?
A: 50

Q: And the “Plant response rating, Oat, Wild” value (oat, wild [17]; [25])?
A: 80

Q: What about the “Plant response rating, Pigweed, Palmer” value (pigweed, palmer [18]; [24]) of the same molecule?
A: 100

Q: And the “Plant response rating, Pigweed, Palmer” value (pigweed, palmer [18]; [25])?
A: 100

Q: And the “Plant response rating, Ragweed” value (ragweed [19]; [24])?
A: 70

Q: And the “Plant response rating, Ragweed” value (ragweed [19]; [25])?
A: 80

Q: And the “Plant response rating, Ryegrass, Italian” value (ryegrass, Italian [20]; [24])?
A: 70

Q: And the “Plant response rating, Ryegrass, Italian” value (ryegrass, Italian [20]; [25])?
A: 80

Q: What about the “Plant response rating, Soybean” value (soybean [21]; [24]) of the same molecule?
A: 90

Q: What about the “Plant response rating, Soybean” value (soybean [21]; [25]) of the same molecule?
A: 100

Q: What about the “Plant response rating, Wheat” value (wheat [22]; [24]) of the same molecule?
A: 30

Q: What about the “Plant response rating, Wheat” value (wheat [22]; [25]) of the same molecule?
A: 70

Q: What about the “Plant response rating, Galium” value (galium; [24]) of the same molecule?
A: 100

Q: And the “Plant response rating, Galium” value (galium; [25])?
A: 100

Q: And the “Plant response rating, Horseweed” value (horseweed; [24])?
A: 60

Q: And the “Plant response rating, Horseweed” value (horseweed; [25])?
A: 60

Q: And the “Plant response rating, Barnyardgrass (Flood)” value (barnyardgrass [23])?
A: 40

Q: And the “Plant response rating, Ducksalad (Flood)” value (ducksalad)?
A: 45

Q: What about the “Plant response rating, Rice (Flood)” value (rice) of the same molecule?
A: 0

Q: What about the “Plant response rating, Sedge, Umbrella (Flood)” value (sedge, umbrella) of the same molecule?
A: 95

— patent publication US20260262643A1, “HERBICIDAL BENZOXAZINES” (FMC CORPORATION, priority 2022, published 2026)
